The subject of data set [1] is P.aeruginosa.
In data set [2] the test system is E.coli. It counts as cell-based. The procedure:
(§1) Bacterial resistance assay. Commercial available Acticoat® dressing from Smith & Nephew was used to study the development of bacterial resistance against Ag. Acticoat® (1 cm^2 area) was placed in water (1 mL) and kept at room temperature for 24 h in order to promote leaching of Ag ions. ICP-MS analysis of leached solution was done to quantify the amount of Ag ions. The leached Acticoat® solution (Ag^+,0.06 ug/mL; sub-minimum inhibitory concentration, sub-MIC) was used to incubate with E.coli or S.aureus suspensions (10^5 CFU/mL) for 20 h in 10% human serum (HS; v/v in PBS). Then, for antimicrobial test, 10^5 CFU/mL of bacteria from passage 1 were incubated with 0.1 ug/mL (minimum inhibitory concentration, MIC) of Acticoat® solution in 10% human serum (HS) for 6 h followed by serial dilution and plating. Plates were incubated at 37° C. for 24 h. The visible bacteria grown on plates were counted. […]
(§2) Next, the inventors evaluated whether LL37NPs induced bacterial resistance (FIG. 5). […] Acticoat® dressing was incubated in PBS for 1, 3 and 5 days followed by the quantification of silver ions using ICP-MS analysis (FIG. 11C). […]
(§3) (A) Schematic diagram showing experimental procedures being used for bacterial resistance assay. […] ICP-MS analysis was performed to quantify the amount of Ag. […]

Data set [3] relates to S.aureus. The class given is cell-based. As for the experimental part: as §1, §2, §3
Data set [4] concerns Human keratinocyte cell line (HaCaT). Nature of the data set: Biocompatibility: keratinocytes cultured on films, ATP (CellTiter-Glo) assay. The class given is cell-based. The conditions noted are these: 4 and 24 h; cells on films or with soluble peptide (20 µg/mL). As for the experimental part:
Cell Culture. Human dermal fibroblast cells (NDHF) (Lonza) were cultured with Dulbecco’s modified eagle’s medium (DMEM) (Sigma) supplemented with 10% (v/v) of fetal bovine serum (Gibco, Grand Island, NY, USA) and 1% (v/v) penicillin/streptomycin (Lonza). NDHF cells under passage number ten were used in all experiments. Human keratinocyte cell line (HaCaT cell line, CLS, Eppelheim, Germany) was cultured as recommended by the vendor. Briefly, HaCaT cells were cultivated using DMEM supplemented with 1% (v/v) penicillin and streptomycin (Invitrogen) and 10% (v/v) fetal bovine serum (FBS, Invitrogen) until 90% of confluence. For passage, HaCat cells were initially trypsinized and then scraped. The cells were sub-cultured at a ratio of 1:3 until achieving the number of cells required for the experiment.
Biocompatibility study. Keratinocytes (2×10^4 cells) were cultured on top of PU-Adhesive-LL37NP, PU-Adhesive or PU films and cultured for 4 and 24 h. […] Cell viability was measured using ATP assay. […]
In vitro cytotoxicity of PU-adhesive-LL37NP films. […] To evaluate the cytotoxicity of films, keratinocytes were cultured on the top of PU-adhesive-LL37NP, PU-adhesive and PU films for 4 and 24 h and then cell viability was evaluated by an ATP assay (FIG. 12A). […]
For orientation: Cellular ATP, detected with luciferase, serves as a proxy for viable cell number.

The structures appear in SMILES notation. Some results are limits rather than exact numbers.

Regarding `CC[C@H](C)[C@H](NC(=O)[C@H](CCCCN)NC(=O)[C@H](CCC(=O)O)NC(=O)[C@H](CCCCN)NC(=O)[C@H](CO)NC(=O)[C@H](CCCCN)NC(=O)[C@H](CCCNC(=N)N)NC(=O)[C@H](Cc1ccccc1)NC(=O)[C@H](Cc1ccccc1)NC(=O)[C@H](CC(=O)O)NC(=O)CNC(=O)[C@H](CC(C)C)NC(=O)[C@@H](N)CC(C)C)C(=O)NCC(=O)N[C@@H](CCCCN)C(=O)N[C@@H](CCC(=O)O)C(=O)N[C@@H](Cc1ccccc1)C(=O)N[C@@H](CCCCN)C(=O)N[C@@H](CCCNC(=N)N)C(=O)N[C@H](C(=O)N[C@H](C(=O)N[C@@H](CCC(N)=O)C(=O)N[C@@H](CCCNC(=N)N)C(=O)N[C@H](C(=O)N[C@@H](CCCCN)C(=O)N[C@@H](CC(=O)O)C(=O)N[C@@H](Cc1ccccc1)C(=O)N[C@@H](CC(C)C)C(=O)N[C@@H](CCCNC(=N)N)C(=O)N[C@@H](CC(N)=O)C(=O)N[C@@H](CC(C)C)C(=O)N[C@H](C(=O)N1CCC[C@H]1C(=O)N[C@@H](CCCNC(=N)N)C(=O)N[C@H](C(=O)N[C@@H](CCC(=O)O)C(=O)N[C@@H](CO)C(=O)N[C@@H](CS)C(=O)O)[C@@H](C)O)C(C)C)[C@@H](C)CC)C(C)C)[C@@H](C)CC` [LL37 peptide], the MIC result in data set [1], in data set [2] (free peptide) and in data set [3] (free peptide) was “up to 15 µg/mL” in each case. Further, the “keratinocyte metabolism / cytotoxicity (ATP production)” value in data set [4] is reported as “No statistic difference in keratinocyte metabolism”.
For `O=C(N[C@H](CO)[C@H](O)c1ccc([N+](=O)[O-])cc1)C(Cl)Cl` [chloramphenicol], the “time to induce resistance” value in data set [2] (serial passages at sub-MIC) and in data set [3] (serial passages at sub-MIC) was at most 3 days throughout.

For the origin of these results see patent US20230173135A1, “PROCESS TO COAT A MEDICAL DEVICE SURFACE WITH PEPTIDE-BASED NANOPARTICLES” (priority 2020, published 2023).
